Test results reported in US20250108026A1, “DROXIDOPA COMPOSITIONS AND METHODS” (XENAMED CORP., priority 2016, published 2025).
In brackets after ≈: the same amount, converted by molar mass.

Key:
Assay type in all cases: physicochemical
[1] = Solid state stability of droxidopa with pH modifiers under accelerated conditions 70° C./75% RH
Protocol: Droxidopa is stable in acidic solution, but degrades in neutral or alkaline conditions. […] When citric acid was present with the drug in solid state, e.g. powder or uncoated granules, droxidopa became unstable under accelerated conditions 70° C./75% RH. When these droxidopa granules/pellets were coated with a protective layer, and blended with citric acid, the drug degradation was reduced. Furthermore, a pH modifier monosodium citrate was used instead of citric acid and blended with droxidopa granules. Droxidopa was stable for 7 days under accelerated conditions 70° C./75% RH. […] Thus, salt based pH modifiers can be used to improve the stability of the droxidopa.

[2] = Stability of droxidopa dissolved in diluents of different pH (0.5 mg/ml, room temperature, UPLC); conditions: for Total degradation, 24-hour Exposure / Total degradation, 48-hour Exposure: room temperature, 0.5 mg/ml
Protocol: Droxidopa was dissolved in 5 diluents at different pH and stored at room temperature for 24 or 48 hours in sealed glass containers. All solutions were prepared at a nominal concentration of 0.5 mg/ml. Percent degradation was determined by ultra-performance liquid chromatography (UPLC) on a Waters ACQUITY UPLC with a photodiode array (PDA) detector using a Waters ACQUITY BEH C18 1.7 um 2.1×50 mm column. Run conditions for the analyses were as follows: • Mobile phase A: 50 mM sodium phosphate pH 3.0 • Mobile phase B: Acetonitrile • Detection wavelength: 279 nm • Flow: 0.5 ml/min • Column temperature: 30 C • Injection volume: 2 μl • Gradient (linear transitions) are shown in Table 12A: Identification of the known components droxidopa and dihydroxybenzaldehyde was confirmed through retention time and spectral match against pure materials of known identity. Degradation results were quantified as a percent area of degradation peaks versus total area of all degradation/droxidopa peaks. Results for pH 10.0 and pH 12.0 samples were estimated at >90% due to a significant number of peaks present near the retention time of droxidopa.

[3] = Droxidopa solubility at room temperature at different pH
[4] = Stability of saturated droxidopa solutions at room temperature (UPLC); conditions: for Stability of saturated droxidopa in solution: room temperature over 24 days; for Total degradation, 7 day Exposure / Total degradation, 24 day Exposure: saturated solution
Protocol: Saturated solutions of droxidopa were prepared in 3 diluents at different pH and stored at room temperature for up to 24 days in sealed containers. All solutions were prepared with an excess of droxidopa by combining 10 mg droxidopa per ml of diluent. Exposed samples were filtered and degradation as a percent of initial droxidopa amount was determined by ultra-performance liquid chromatography (UPLC) on a Waters ACQUITY UPLC with a photodiode array (PDA) detector using a Waters ACQUITY HSS PFP 1.8 μm 2.1×100 mm column. Run conditions for the analyses were as follows: • Mobile phase A: 50 mM ammonium formate pH 3.0 • Mobile phase B: Acetonitrile • Detection wavelength: 279 nm • Flow: 0.5 ml/min • Column temperature: 30 C • Injection volume: 1 μl • Gradient (linear transitions) are shown in Table 12B: […]

[5] = pH 3, 50 mM NaH2PO4 adjusted to pH 3.0 with Phosphoric acid
[6] = pH 7, 50 mM NaH2PO4 adjusted to pH 7.0 with 1N Sodium hydroxide
[7] = 16 mmol citric acid, room temperature
[8] = 16 mmol disodium citrate combined with 16 mmol citric acid to achieve pH 4.0, room temperature

- Solid state stability ([1]; citric acid present with the drug in solid state (powder or uncoated granules)): unstable
- Solid state stability ([1]; droxidopa granules blended with monosodium citrate, 7 days): stable
- Drug degradation in solid state ([1]; granules/pellets coated with a protective layer and blended with citric acid): reduced
- Stability in solution ([2]; acidic solution): stable
- Stability in solution ([2]; neutral or alkaline conditions): degrades
- Total degradation, 24-hour Exposure ([2]; pH 1.2, 0.1N HCl): <0.05%
- Total degradation, 48-hour Exposure ([2]; pH 1.2, 0.1N HCl): <0.05%
- Total degradation, 24-hour Exposure [2, 5]: <0.05%
- Total degradation, 48-hour Exposure [2, 5]: <0.05%
- Total degradation, 24-hour Exposure [2, 6]: 0.39%
- Total degradation, 48-hour Exposure [2, 6]: 1.23%
- Total degradation, 24-hour Exposure ([2]; pH 10, 25 mM HCO2NH4 adjusted to pH 10.0 with NH4OH, estimated): >90%
- Total degradation, 24-hour Exposure ([2]; pH 12, 0.01N NaOH, estimated): >90%
- solubility ([3]; solution of pH 1.2 (composition not stated), pH 1.2, simulated gastric fluid): 15500 µg/mL (≈ 72.7 mM)
- solubility ([3]; solution of pH 3.0 (composition not stated), pH 3, aqueous buffer): 2620 µg/mL (≈ 12.3 mM)
- solubility ([3]; solution of pH 4.5 (composition not stated), pH 4.5, aqueous buffer): 2350 µg/mL (≈ 11 mM)
- solubility ([3]; solution of pH 5.5 (composition not stated), pH 5.5, aqueous buffer): 2300 µg/mL (≈ 10.8 mM)
- solubility ([3]; solution of pH 6.8 (composition not stated), pH 6.8, aqueous buffer): 2470 µg/mL (≈ 11.6 mM)
- Stability of saturated droxidopa in solution ([4]; citrate buffer (pH 4.0)): stable
- Stability of saturated droxidopa in solution ([4]; citric acid solution (pH 2.5)): stable
- Total degradation, 7 day Exposure [4, 7]: 0.0%
- Total degradation, 24 day Exposure [4, 7]: 0.1%
- Total degradation, 7 day Exposure [4, 8]: 0.0%
- Total degradation, 24 day Exposure [4, 8]: 0.1%
- Total degradation, 7 day Exposure ([4]; Deionized water, room temperature): 0.1%
SMILES: N[C@H](C(=O)O)[C@H](O)c1ccc(O)c(O)c1 [droxidopa, (−)-threo-3-(3,4-Dihydroxyphenyl)-L-serine]
